Data taken from publication PMC10840709 (Cell chemical biology, 2023).
pIC50: −log10 of the molar value.

Assays:
CSNK2A2 = CSNK2A2 (Homo sapiens, UniProt P19784); experiment: HotSpot […]-ATP kinase assay; format: biochemical
BRAF V600E = BRAF V600E (Homo sapiens, UniProt P15056, V600E); experiment: NanoBRET target engagement in HEK293 cells; format: cell-based
BRAF = BRAF (Homo sapiens, UniProt P15056); experiment: HotSpot […]-ATP kinase assay; format: biochemical
BRAF, sequence (P15056 2-766): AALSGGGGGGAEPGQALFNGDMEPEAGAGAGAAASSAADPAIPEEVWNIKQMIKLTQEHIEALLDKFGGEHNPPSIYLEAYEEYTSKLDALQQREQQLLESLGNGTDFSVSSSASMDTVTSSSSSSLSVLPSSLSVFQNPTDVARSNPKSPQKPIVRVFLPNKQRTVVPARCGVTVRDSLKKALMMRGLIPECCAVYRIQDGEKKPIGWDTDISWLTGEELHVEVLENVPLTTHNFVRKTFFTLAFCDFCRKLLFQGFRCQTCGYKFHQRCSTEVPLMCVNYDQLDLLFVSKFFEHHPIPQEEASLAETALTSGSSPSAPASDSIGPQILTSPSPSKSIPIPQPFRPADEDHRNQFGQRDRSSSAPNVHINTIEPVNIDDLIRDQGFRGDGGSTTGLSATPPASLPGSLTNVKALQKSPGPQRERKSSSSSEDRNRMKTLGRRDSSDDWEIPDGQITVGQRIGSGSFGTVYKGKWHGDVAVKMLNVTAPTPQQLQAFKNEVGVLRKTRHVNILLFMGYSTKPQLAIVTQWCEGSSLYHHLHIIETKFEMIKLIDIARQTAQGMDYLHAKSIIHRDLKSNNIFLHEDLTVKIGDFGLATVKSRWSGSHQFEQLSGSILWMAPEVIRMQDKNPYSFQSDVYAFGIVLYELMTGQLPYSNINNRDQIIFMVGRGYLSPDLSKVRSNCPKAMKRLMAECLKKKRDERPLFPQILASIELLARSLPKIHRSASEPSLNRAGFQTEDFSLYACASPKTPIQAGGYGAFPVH

CSNK2A2, sequence (P19784 whole entry): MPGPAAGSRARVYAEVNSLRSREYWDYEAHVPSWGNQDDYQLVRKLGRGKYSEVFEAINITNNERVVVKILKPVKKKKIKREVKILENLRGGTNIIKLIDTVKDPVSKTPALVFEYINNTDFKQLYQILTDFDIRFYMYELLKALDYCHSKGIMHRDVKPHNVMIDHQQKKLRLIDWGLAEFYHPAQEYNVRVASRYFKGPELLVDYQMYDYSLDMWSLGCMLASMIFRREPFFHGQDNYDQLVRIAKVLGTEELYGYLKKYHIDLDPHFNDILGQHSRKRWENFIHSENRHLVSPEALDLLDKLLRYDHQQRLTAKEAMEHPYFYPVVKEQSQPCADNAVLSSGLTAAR
BRAF V600E, sequence (P15056 2-766 V600E): as the sequence (P15056 2-766) above, with V599E counted along it

## CCN1CCN(Cc2ccc(Nc3ncc(F)c(-c4cc(F)c5nc(C)n(C(C)C)c5c4)n3)nc2)CC1 [abemaciclib]
CSNK2A2
  pIC50: 7.44

## Cc1ccc(NC(=O)c2ccc(CN3CC[C@H](N(C)C)C3)c(C(F)(F)F)c2)cc1Nc1nccc(-c2cncnc2)n1 [bafetinib]
BRAF V600E
  pIC50: 6.66
BRAF
  pIC50: 7.38
